Results taken from patent publication US10092575B2, “Substituted thiophene- and furan-fused azolopyrimidine-5-(6H)-one compounds” (DART NEUROSCIENCE (CAYMAN) LTD., priority 2012, dated 2018).

Molecular target: human PDE1b enzyme (Homo sapiens (Human), UniProt Q01064)
Assay: PDE1b inhibitory assay (IMAP TR-FRET)
Conditions: for PDE1b (pEC50): negative log of half-maximal molar inhibitory concentration, 200 nM FAM-cAMP, reported as ranges

SMILES: COc1ccc(Cn2c(=O)n3ncnc3c3c(C)c(CN4CCNC(=O)C4)sc32)cc1 [Example 53, 6-(4-Methoxybenzyl)-9-methyl-8-((3-oxopiperazin-1-yl)methyl)thieno[3,2-e][1,2,4]triazolo[1,5-c]pyrimidin-5(6H)-one]
- PDE1b (pEC50): >7

SMILES: COc1ccc(Cn2c(=O)n3ncnc3c3c(C)c(CN(C)CC4CCCO4)sc32)cc1 (centres unmarked) [Example 54, 6-(4-Methoxybenzyl)-9-methyl-8-((methyl((tetrahydrofuran-2-yl)methyl)amino)methyl)thieno[3,2-e][1,2,4]triazolo[1,5-c]pyrimidin-5(6H)-one]
- PDE1b (pEC50): >7

SMILES: COc1ccc(Cn2c(=O)n3ncnc3c3c(C)c(CN4C[C@@H](C)O[C@@H](C)C4)sc32)cc1 [Example 55, 8-(((2S,6R)-2,6-Dimethylmorpholino)methyl)-6-(4-methoxybenzyl)-9-methylthieno[3,2-e][1,2,4]triazolo[1,5-c]pyrimidin-5(6H)-one]
- PDE1b (pEC50): >7

SMILES: COc1ccc(Cn2c(=O)n3ncnc3c3c(C)c(CN4Cc5ccccc5C4)sc32)cc1 [Example 56, 8-(Isoindolin-2-ylmethyl)-6-(4-methoxybenzyl)-9-methylthieno[3,2-e][1,2,4]triazolo[1,5-c]pyrimidin-5(6H)-one]
- PDE1b (pEC50): >7

SMILES: COc1ccc(Cn2c(=O)n3ncnc3c3c(C)c(CNC4CC4)sc32)cc1 [Example 57, 8-((Cyclopropylamino)methyl)-6-(4-methoxybenzyl)-9-methylthieno[3,2-e][1,2,4]triazolo[1,5-c]pyrimidin-5(6H)-one]
- PDE1b (pEC50): >7

SMILES: COC[C@@H]1CCCN1Cc1sc2c(c1C)c1ncnn1c(=O)n2Cc1ccc(OC)cc1 [Example 58, (S)-6-(4-Methoxybenzyl)-8-((2-(methoxymethyl)pyrrolidin-1-yl)methyl)-9-methylthieno[3,2-e][1,2,4]triazolo[1,5-c]pyrimidin-5(6H)-one]
- PDE1b (pEC50): >7

SMILES: COc1ccc(Cn2c(=O)n3ncnc3c3c(C)c(CN(C)CC4CCOC4)sc32)cc1 (centres unmarked) [Example 59, 6-(4-Methoxybenzyl)-9-methyl-8-((methyl((tetrahydrofuran-3-yl)methyl)amino)methyl)thieno[3,2-e][1,2,4]triazolo[1,5-c]pyrimidin-5(6H)-one]
- PDE1b (pEC50): >7

SMILES: COc1ccc(Cn2c(=O)n3ncnc3c3c(C)c(CN4CCCOCC4)sc32)cc1 [Example 61, 8-((1,4-Oxazepan-4-yl)methyl)-6-(4-methoxybenzyl)-9-methylthieno[3,2-e][1,2,4]triazolo[1,5-c]pyrimidin-5(6H)-one]
- PDE1b (pEC50): >7

SMILES: COc1ccc(Cn2c(=O)n3ncnc3c3c(C)c(CN4CCN(S(C)(=O)=O)CC4)sc32)cc1 [Example 63, 6-(4-Methoxybenzyl)-9-methyl-8-((4-(methylsulfonyl)piperazin-1-yl)methyl)thieno[3,2-e][1,2,4]triazolo[1,5-c]pyrimidin-5(6H)-one]
- PDE1b (pEC50): >7

SMILES: COc1ccc(Cn2c(=O)n3ncnc3c3c(C)c(CN4CCN(C(C)C)CC4)sc32)cc1 [Example 64, 8-((4-Isopropylpiperazin-1-yl)methyl)-6-(4-methoxybenzyl)-9-methylthieno[3,2-e][1,2,4]triazolo[1,5-c]pyrimidin-5(6H)-one]
- PDE1b (pEC50): >7

SMILES: COc1ccc(Cn2c(=O)n3ncnc3c3c(C)c(CN4CC5CC4CO5)sc32)cc1 (centres unmarked) [Example 65, 8-(2-Oxa-5-azabicyclo[2.2.1]heptan-5-ylmethyl)-6-(4-methoxybenzyl)-9-methylthieno[3,2-e][1,2,4]triazolo[1,5-c]pyrimidin-5(6H)-one]
- PDE1b (pEC50): >7

SMILES: CCN1CCN(Cc2sc3c(c2C)c2ncnn2c(=O)n3Cc2ccc(OC)cc2)CC1=O [Example 66, 8-((4-Ethyl-3-oxopiperazin-1-yl)methyl)-6-(4-methoxybenzyl)-9-methylthieno[3,2-e][1,2,4]triazolo[1,5-c]pyrimidin-5(6H)-one]
- PDE1b (pEC50): >7

SMILES: COc1ccc(Cn2c(=O)n3ncnc3c3c(C)c(CN4CC5CCC(C4)O5)sc32)cc1 [Example 67, 8-(8-Oxa-3-azabicyclo[3.2.1]octan-3-ylmethyl)-6-(4-methoxybenzyl)-9-methylthieno[3,2-e][1,2,4]triazolo[1,5-c]pyrimidin-5(6H)-one]
- PDE1b (pEC50): >7

SMILES: CCC1CN(Cc2sc3c(c2C)c2ncnn2c(=O)n3Cc2ccc(OC)cc2)CCO1 (centres unmarked) [Example 68, 8-((2-Ethylmorpholino)methyl)-6-(4-methoxybenzyl)-9-methylthieno[3,2-e][1,2,4]triazolo[1,5-c]pyrimidin-5(6H)-one]
- PDE1b (pEC50): >7

SMILES: COc1ccc(Cn2c(=O)n3ncnc3c3c(C)c(CN4CCOC(C)(C)C4)sc32)cc1 [Example 69, 8-((2,2-Dimethylmorpholino)methyl)-6-(4-methoxybenzyl)-9-methylthieno[3,2-e][1,2,4]triazolo[1,5-c]pyrimidin-5(6H)-one]
- PDE1b (pEC50): >7

SMILES: COc1ccc(Cn2c(=O)n3ncnc3c3c(C)c(CN4CCOC(C)C4)sc32)cc1 (centres unmarked) [Example 70, 6-(4-Methoxybenzyl)-9-methyl-8-((2-methylmorpholino)methyl)thieno[3,2-e][1,2,4]triazolo[1,5-c]pyrimidin-5(6H)-one]
- PDE1b (pEC50): >7

SMILES: COc1ccc(Cn2c(=O)n3ncnc3c3c(C)c(CN4CCOCC4C)sc32)cc1 (centres unmarked) [Example 71, 6-(4-Methoxybenzyl)-9-methyl-8-((3-methylmorpholino)methyl)thieno[3,2-e][1,2,4]triazolo[1,5-c]pyrimidin-5(6H)-one]
- PDE1b (pEC50): >7

SMILES: COc1ccc(Cn2c(=O)n3ncnc3c3c(C)c(CN4C[C@@H](C)N[C@@H](C)C4)sc32)cc1 [Example 72, 8-(((3R,5S)-3,5-Dimethylpiperazin-1-yl)methyl)-6-(4-methoxybenzyl)-9-methylthieno[3,2-e][1,2,4]triazolo[1,5-c]pyrimidin-5(6H)-one]
- EC50: 100 to 1000 nM

SMILES: COc1ccc(Cn2c(=O)n3ncnc3c3c(C)c(CN4CCN(C)C(C)C4)sc32)cc1 (centres unmarked) [Example 73, 8-((3,4-Dimethylpiperazin-1-yl)methyl)-6-(4-methoxybenzyl)-9-methylthieno[3,2-e][1,2,4]triazolo[1,5-c]pyrimidin-5(6H)-one]
- PDE1b (pEC50): >7

SMILES: COc1ccc(Cn2c(=O)n3ncnc3c3c(C)c(CN4CCN(C)C(C)(C)C4)sc32)cc1 [Example 74, 6-(4-Methoxybenzyl)-9-methyl-8-((3,3,4-trimethylpiperazin-1-yl)methyl)thieno[3,2-e][1,2,4]triazolo[1,5-c]pyrimidin-5(6H)-one]
- PDE1b (pEC50): >7

SMILES: COc1ccc(Cn2c(=O)n3ncnc3c3c(C)c(CN4CCN5CCC[C@H]5C4)sc32)cc1 [Example 75, (S)-8-((Hexahydropyrrolo[1,2-a]pyrazin-2(1H)-yl)methyl)-6-(4-methoxybenzyl)-9-methylthieno[3,2-e][1,2,4]triazolo[1,5-c]pyrimidin-5(6H)-one]
- PDE1b (pEC50): >7

SMILES: COc1ccc(Cn2c(=O)n3ncnc3c3c(C)c(Br)sc32)cc1 [Example 76, 8-Bromo-6-(4-methoxybenzyl)-9-methylthieno[3,2-e][1,2,4]triazolo[1,5-c]pyrimidin-5(6H)-one]
- EC50: 100 to 1000 nM

SMILES: COc1ccc(Cn2c(=O)n3ncnc3c3c(C)c(CO)sc32)cc1 [Example 77, 8-(Hydroxymethyl)-6-(4-methoxybenzyl)-9-methylthieno[3,2-e][1,2,4]triazolo[1,5-c]pyrimidin-5(6H)-one]
- EC50: 100 to 1000 nM

SMILES: COc1ccc(Cn2c(=O)n3ncnc3c3c(CN4C[C@@H](C)O[C@@H](C)C4)csc32)cc1 [Example 78, 9-(((2S,6R)-2,6-Dimethylmorpholino)methyl)-6-(4-methoxybenzyl)thieno[3,2-e][1,2,4]triazolo[1,5-c]pyrimidin-5(6H)-one]
- EC50: 100 to 1000 nM

SMILES: Cc1oc2c(c1C)c1ncnn1c(=O)n2Cc1ccc(Cl)cc1 [Example 79, 6-(4-Chlorobenzyl)-8,9-dimethylfuro[3,2-e][1,2,4]triazolo[1,5-c]pyrimidin-5(6H)-one]
- EC50: 100 to 1000 nM

SMILES: COc1ccc(Cn2c(=O)n3ncnc3c3c4c(sc32)CN(C(=O)OC(C)(C)C)CC4)cc1 [Example 80, tert-Butyl 6-(4-methoxybenzyl)-5-oxo-5,6,10,11-tetrahydropyrido[4′,3′:4,5]thieno[3,2-e][1,2,4]triazolo[1,5-c]pyrimidine-9(8H)-carboxylate]
- PDE1b (pEC50): >7

SMILES: O=c1n(Cc2ccccc2Cl)c2sc3c(c2c2ncnn12)CCCC3 [Example 81, 6-(2-Chlorobenzyl)-8,9,10,11-tetrahydrobenzo[4,5]thieno[3,2-e][1,2,4]triazolo[1,5-c]pyrimidin-5(6H)-one]
- EC50: 1000 to 10000 nM

SMILES: COc1ccc(Cn2c(=O)n3nccc3c3cc(CN4CCOCC4)sc32)cc1 [Example 82, 4-(4-Methoxybenzyl)-2-(morpholinomethyl)pyrazolo[1,5-c]thieno[3,2-e]pyrimidin-5(4H)-one]
- EC50: 100 to 1000 nM

SMILES: CC1(C)Cc2c(sc3c2c2ncnn2c(=O)n3Cc2ccc(Cl)cc2)CO1 [Example 83, 6-(4-Chlorobenzyl)-10,10-dimethyl-6,8,10,11-tetrahydro-5H-pyrano[4′,3′:4,5]thieno[3,2-e][1,2,4]triazolo[1,5-c]pyrimidin-5-one]
- EC50: 100 to 1000 nM

SMILES: O=c1n(Cc2ccccc2)c2sc3c(c2c2ncnn12)CCCC3 [Example 84, 6-Benzyl-8,9,10,11-tetrahydrobenzo[4,5]thieno[3,2-e][1,2,4]triazolo[1,5-c]pyrimidin-5(6H)-one]
- EC50: 100 to 1000 nM

SMILES: O=c1n(Cc2cccc(Cl)c2)c2sc3c(c2c2ncnn12)CCCC3 [Example 85, 6-(3-Chlorobenzyl)-8,9,10,11-tetrahydrobenzo[4,5]thieno[3,2-e][1,2,4]triazolo[1,5-c]pyrimidin-5(6H)-one]
- EC50: 100 to 1000 nM

SMILES: O=c1n(Cc2ccc(-c3ccccc3)cc2)c2sc3c(c2c2ncnn12)CCCC3 [Example 86, 6-([1,1′-Biphenyl]-4-ylmethyl)-8,9,10,11-tetrahydrobenzo[4,5]thieno[3,2-e][1,2,4]triazolo[1,5-c]pyrimidin-5(6H)-one]
- EC50: 1000 to 10000 nM
